Columns and labels:
Type in all cases: cell-based
[1] = system: T-Rex 293 cell line SC3 cells having increased expression of androgen receptor protein; test: Cellular growth inhibition, T-Rex 293 SC3 cells with doxycycline (increased androgen receptor expression); details: with 10 ng/mL doxycycline (increased androgen receptor), 72 hours, CellTiter-Glo 2.0
Description: (§1) The following types of cells were prepared for this experiment: (i) a T-Rex 293 cell line having increased expression of androgen receptor protein due to exposure to doxycycline and (ii) a T-Rex 293 cell line lacking increased expression of androgen receptor protein. Ability of the test compounds to inhibit proliferation of the foregoing cell types was evaluated according to the procedures set forth below.
(§2) The doxycycline-inducible androgen receptor protein expressing cell line was established using the following protocol: T-Rex 293 cells were purchased from Invitrogen (Cat #R71007) and transfected using Lipofectamine 2000 with the wild-type androgen receptor protein sequence cloned into the pcDNA4/TO vector. Transfected cells were selected using 400 μg/mL Zeocin (Invitrogen Cat #R25001). Following selection, single clones were raised and maintained in Dulbecco's Modified Eagle Medium (DMEM) supplemented with 10% w/w Tetracycline-free fetal bovine serum (FBS) and 250 μg/mL Zeocin. Clones were analyzed for expression of androgen receptor protein in the presence and absence of 10 ng/mL doxycycline (Sigma Cat #D9891), and a single doxycycline-inducible clone (hereinafter “SC3”) was selected for use in downstream assays.
(§3) The SC3 cells were seeded on poly-D-lysine coated, black clear-bottom 384-well plates at 2500/well, in 25 μL Phenol Red Free Dulbecco's Modified Eagle Medium (DMEM) supplemented with 10% w/w charcoal-dextran treated fetal bovine serum (FBS) and 1% w/w pen-strep, with or without 10 ng/mL doxycycline. Pen-Strep is a commercially available mixture of penicillin G and streptomycin, which is used in mammalian cell culture media to prevent bacterial contamination. Phenol Red Free Dulbecco's Modified Eagle Medium (DMEM) supplemented with 10% w/w charcoal-dextran treated fetal bovine serum (FBS) and 1% w/w pen-strep, with or without 10 ng/mL doxycycline is herein referred to as Treatment Medium. Following seeding of cells in the plates, the plates were spun at 300×g for 30 seconds, then equilibrated to room temperature for 30 minutes, and then deposited in a humidified tissue culture incubator maintained at 37° C. with 5% CO2.
(§4) At 24 hours after seeding of the cells, dilutions of test compound were prepared in DMSO and dissolved in Treatment Medium, to achieve a final DMSO concentration of 0.5% w/w, thereby providing the Test Compound Solution. A 25 μL aliquot of the Test Compound Solution was added to cells in the well plates. An equal volume of a solution containing DMSO and Treatment Medium was used as a negative control. Following treatment of cells with Test Compound Solution or said equal volume of a solution containing DMSO and Treatment Medium, the plates were spun at 300×g for 30 seconds, and then left in an incubator for 72 hours.
(§5) At the end of the treatment duration, cell viability was quantified with CellTiter-Glo 2.0 reagent (Promega Cat #G9243). For this purpose, plates were equilibrated to room temperature for 30 minutes, and then 25 μL of CellTiter-Glo 2.0 reagent was added to cells in the plate wells. Plates were then agitated on a shaker for two minutes at 500 rpm and subsequently incubated at room temperature for 10 minutes. Following incubation, the plates were spun at 3000×g for 30 seconds, then sealed with an optical adhesive cover, and luminescence readings were measured with an EnVision Plate Reader.
(§6) Data was normalized using zero luminescence for baseline. A four-parameter non-linear regression curve fit was applied to dose-response data in GraphPad Prism data analysis software to determine the half-maximal growth inhibitory concentration (GI50) for each test compound.

T47D cells = test: Cellular growth inhibition assay for T47D cells; details: Homo sapiens, 72 hours, CellTiter-Glo 2.0
Description: (§7) T47D cells were purchased from American Type Cell Culture (ATCC Cat #HTB-133) and then seeded on poly-D-lysine coated, black clear-bottom 384-well plates at 3000/well in 25 μL Dulbecco's Modified Eagle Medium (DMEM) supplemented with 10% w/w Fetal bovine serum (FBS), 0.2 units/mL recombinant human insulin (Gibco Cat #12585014), and 1% w/w Pen-Strep. Pen-Strep is a commercially available mixture of penicillin G and streptomycin, which is used in mammalian cell culture media to prevent bacterial contamination. Dulbecco's Modified Eagle Medium (DMEM) supplemented with 10% w/w fetal bovine serum (FBS), 0.2 units/mL recombinant human insulin, and 1% w/w Pen-Strep is herein referred to as Treatment Medium. Following seeding of cells in the plates, the plates were spun at 300×g for 30 seconds, then equilibrated to room temperature for 30 minutes, and then deposited in a humidified tissue culture incubator maintained at 37° C. with 5% CO2.
as §4
as §5, with “Reader (Perkin Elmer).” for “Reader.”
as §6

VCaP cells = test: Cellular growth inhibition assay for VCaP cells; details: Homo sapiens, 72 hours, CellTiter-Glo 2.0
Description: as §7, with “VCaP” for “T47D”, “#CRL2876)” for “#HTB-133)”, “5000/well” for “3000/well”, “(FBS)” for “(FBS), 0.2 units/mL recombinant human insulin (Gibco Cat #12585014),”, “(FBS)” for “(FBS), 0.2 units/mL recombinant human insulin,”
as §4
as §5, with “Reader. Data was normalized using zero luminescence for baseline.” for “Reader.”
A four-parameter non-linear regression curve fit was applied to dose-response data in GraphPad Prism data analysis software to determine the half-maximal growth inhibitory concentration (GI50) for each test compound.

[2] = system: T-Rex 293 cell line SC3 cells lacking increased expression of androgen receptor protein; test: Cellular growth inhibition, T-Rex 293 SC3 cells without doxycycline; details: not exposed to doxycycline, 72 hours, CellTiter-Glo 2.0
Description: as §1, §2, §3, §4, §5, §6

Row | SMILES | GI50 (T47D cells) [µM] | GI50 (VCaP cells) [µM] | GI50 [1] [µM] | GI50 [2] [µM]
1 | CCc1cnn2c(NCc3ccc(OCCCN4CCN(CC5CCN(c6ncc(C(=O)N[C@H]7C(C)(C)[C@H](Oc8ccc(C#N)c(Cl)c8)C7(C)C)cn6)CC5)CC4)nc3)cc(N3CCCCC3)nc12 [Compound I-50, N-((1 r,3r)-3-(3-chloro-4-cyanophenoxy)-2,2,4,4-tetramethylcyclobutyl)-2-(4-((4-(3-((5-(((3-ethyl-5-(piperidin-1-yl)pyrazolo[1,5-a]pyrimidin-7-yl)amino)methyl)pyridin-2-yl)oxy)propyl)piperazin-1-yl)methyl)piperidin-1-yl)pyrimidine-5-carboxamide] | > 3 | > 3.5 | 0.1 to 1 | > 3.5
2 | CC1(C)[C@H](NC(=O)c2cnc(N3CCC(OCCOCCOCCN4C/C=C/CCOc5cccc(c5)-c5ccnc(n5)Nc5cccc(c5)C4)CC3)nc2)C(C)(C)[C@H]1Oc1ccc(C#N)c(Cl)c1 [Compound I-89] | > 3 | > 3.5 | 0.1 to 1 | > 3.5
3 | CCc1cnn2c(NCc3ccc(N4CC(N5CCN(C6CCN(c7ncc(C(=O)N[C@H]8C(C)(C)[C@H](Oc9ccc(C#N)c(Cl)c9)C8(C)C)cn7)CC6)CC5)C4)nc3)cc(N3CCCC[C@H]3CCO)nc12 [Compound I-65] | < 0.5 | < 0.1 | < 0.1 | < 0.1
4 | CC(C)n1cc(-c2ccnc3[nH]c(C4CCN(CCOCCOCCOC5CCN(c6ncc(C(=O)N[C@H]7C(C)(C)[C@H](Oc8ccc(C#N)c(Cl)c8)C7(C)C)cn6)CC5)CC4)cc23)ccc1=O [Compound I-77] | 0.5 to 1.5 | 0.1 to 1 | 0.1 to 1 | 0.1 to 1
5 | CCc1cnn2c(NCc3ccc(OCCC4CCN(CC5CCN(c6ncc(C(=O)N[C@H]7C(C)(C)[C@H](Oc8ccc(C#N)c(Cl)c8)C7(C)C)cn6)CC5)CC4)nc3)cc(N3CCCC[C@H]3CCO)nc12 [Compound I-52] | < 0.5 | < 0.1 | < 0.1 | 0.1 to 1
6 | CN(CCOCCOCCNS(=O)(=O)c1ccc(Nc2ncc(Br)c(Nc3cccc(F)c3C(N)=O)n2)cc1)c1ncc(C(=O)N[C@H]2C(C)(C)[C@H](Oc3ccc(C#N)c(Cl)c3)C2(C)C)cn1 [Compound I-19] | < 0.5 |  | > 3.5 | > 3.5
7 | CCc1cnn2c(NCc3ccc(N(C)CCOC4CCN(C5CN(c6ncc(C(=O)N[C@H]7C(C)(C)[C@H](Oc8ccc(C#N)c(Cl)c8)C7(C)C)cn6)C5)CC4)nc3)cc(N3CCCC[C@H]3CCO)nc12 [Compound I-85] | < 0.5 | 0.1 to 1 | 0.1 to 1 | 0.1 to 1
8 | CCc1cnn2c(NCc3ccc(N4CCC(OCCC5CCN(c6ncc(C(=O)N[C@H]7C(C)(C)[C@H](Oc8ccc(C#N)c(Cl)c8)C7(C)C)cn6)CC5)C4)nc3)cc(N3CCCC[C@H]3CCO)nc12 (stereo partly drawn) [Compound I-80] | 0.5 to 1.5 | 0.1 to 1 | < 0.1 | > 3.5

Second part, led by results:

Row | GI50 (T47D cells) [µM] | GI50 (VCaP cells) [µM] | SMILES | GI50 [1] [µM] | GI50 [2] [µM]
9 | 0.5 to 1.5 | > 3.5 | CCc1cnn2c(NCc3ccc(OCCCCN4CCN(CC5CCN(c6ncc(C(=O)N[C@H]7C(C)(C)[C@H](Oc8ccc(C#N)c(Cl)c8)C7(C)C)cn6)CC5)CC4)nc3)cc(N3CCCC(F)(F)C3)nc12 [Compound I-93] | 0.1 to 1 | > 3.5
10 | < 0.5 |  | CN(CCNS(=O)(=O)c1ccc(Nc2ncc(Br)c(Nc3cccc(F)c3C(N)=O)n2)cc1)c1ncc(C(=O)N[C@H]2C(C)(C)[C@H](Oc3ccc(C#N)c(Cl)c3)C2(C)C)cn1 [Compound I-18, 2-((2-((4-((5-bromo-4-((2-carbamoyl-3-fluorophenyl)amino)pyrimidin-2-yl)amino)phenyl)sulfonamido)ethyl)(methyl)amino)-N-((1r,3r)-3-(3-chloro-4-cyanophenoxy)-2,2,4,4-tetramethylcyclobutyl)pyrimidine-5-carboxamide] | 0.1 to 1 | 0.1 to 1
11 | 1.5 to 3 | > 3.5 | CCc1cnn2c(NCc3ccc(OCCOC4CCN(c5ncc(C(=O)N[C@H]6C(C)(C)[C@H](Oc7ccc(C#N)c(Cl)c7)C6(C)C)cn5)CC4)nc3)cc(N3CCCC(F)(F)C3)nc12 [Compound I-84, N-[3-(3-chloro-4-cyano-phenoxy)-2,2,4,4-tetramethyl-cyclobutyl]-2-[4-[2-[[5-[[[5-(3,3-difluoro-1-piperidyl)-3-ethyl-pyrazolo[1,5-a]pyrimidin-7-yl]amino]methyl]-2-pyridyl]oxy]ethoxy]-1-piperidyl]pyrimidine-5-carboxamide] | 0.1 to 1 | > 3.5
12 | < 0.5 |  | CCc1cnn2c(NCc3ccc(N(C)CCCN4CCN(C5CN(c6ncc(C(=O)N[C@H]7C(C)(C)[C@H](Oc8ccc(C#N)c(Cl)c8)C7(C)C)cn6)C5)CC4)nc3)cc(N3CCCC[C@H]3CCO)nc12 [Compound I-81] |  | 
13 | 0.5 to 1.5 | 0.1 to 1 | CCc1cnn2c(NCc3ccc(OCCCN4CCN(CC5CCN(c6ncc(C(=O)N[C@H]7C(C)(C)[C@H](Oc8ccc(C#N)c(Cl)c8)C7(C)C)cn6)CC5)CC4)nc3)cc(N3CCCC(F)(F)C3)nc12 [Compound I-92] | 0.1 to 1 | 1 to 3.5
14 | 0.5 to 1.5 | 0.1 to 1 | CCc1cnn2c(NCc3ccc(N(C)CCCN4CCC(C5CN(c6ncc(C(=O)N[C@H]7C(C)(C)[C@H](Oc8ccc(C#N)c(Cl)c8)C7(C)C)cn6)C5)CC4)nc3)cc(N3CCCC[C@H]3CCO)nc12 [Compound I-82] | 0.1 to 1 | 0.1 to 1

Source: patent US20260159520A1, “HETEROBIFUNCTIONAL COMPOUNDS AND METHODS OF TREATING DISEASE” (Halda Therapeutics OpCo, Inc., priority 2022, published 2026)
